Experimental data from PubChem BioAssay AID2060618 (Molecular Pharmacology Branch, DTP, NCI, 2025).
pIC50: −log10 of the molar value. Values joined by “and” are separate entries in the source; they are usually repeats but may differ in a detail not shown here. Equal values may be shown once.

System: 454973-116-R2-J3-PDC spheroids, percent test/control viability
Assay: Anticancer human tumor 454973-116-R2-J3-PDC patient-derived pancreatic carcinoma cell line growth inhibition [CLK]
Details: spheroids with HUVEC and MSC; for viability, T/C: stronger effect = lower value; for pIC50: curve of compound
Description: A high-throughput screen of multi-cell type tumor spheroids was designed to identify active combinations of […] and targeted small molecules. Complex spheroids include a stromal component modeled by human endothelial cells (HUVEC) and fibroblasts modeled by human mesenchymal stem cells (MSCs). The concentration ranges selected for each drug and investigational agent were based upon clinically achievable concentrations if the clinical Cmax of the agent was known.
Compounds. The drugs and investigational agents: cirtuvivint (SM08502; NSC835563), CC-671 (NSC850746), vemurafenib (NSC761431), tapotoclax (NSC804041), sotorasib (NSC818433), adagrasib (NSC831453), MRTX-1133 (NSC836407), BAY2416964 (NSC825713), copanlisib (NSC816437), inavolisib (NSC800729), abemaciclib (NSC768073), osimertinib (NSC779217), entinostat (NSC756642), eltanexor (KPT-8602, NSC794443), venetoclax (NSC766270), ceralasertib (NSC777638), bortezomib (NSC756655), olaparib (NSC753686), talazoparib (NSC767125), alisertib (NSC759677), peposertib (NSC802822), gemcitabine (NSC613327), 5-fluorouracil (NSC19893), SN-38 (NSC673596), oxaliplatin (NSC266046), paclitaxel (NSC125973), and doxorubicin (NSC123127), were obtained from the National Cancer Institute (NCI) Developmental Therapeutics Program Chemical Repository. The FDA-approved anticancer drug set is available from the Developmental Therapeutics Program at https://dtp.cancer.gov/organization/dscb/obtaining/available plates.htm. […] The stock solutions were prepared in dimethyl sulfoxide (DMSO, Sigma-Aldrich, St. Louis, MO, cat. D2650), except for the platinum complexes which were prepared in saline (Quality Biological, Gaithersburg, MD, cat. 114-055-101), at 800-fold the tested concentration and stored at -70 degrees C prior to their use. All drugs and investigational agents were tested over a range starting from a high concentration at or near the clinical Cmax and decreasing in half-log increments. If the clinical Cmax for an agent had not been determined, the highest concentration tested was 10 microM.
Cell Culture. All cells were maintained in an incubator at 37 degrees C and 5% CO2 with 95% humidity. The PDC lines were cultured according to standard operating procedures established by the NCI PDMR. Briefly, all PDCs were thawed and cultured in Matrigel-coated flasks prepared with a working solution of 1X Ham's F-12 nutrient mix, without supplementation (Invitrogen, Waltham, MA, cat. 11765054), 100 U/mL penicillin-streptomycin (Invitrogen, cat. 15140122), and 2.5% Matrigel (Corning Inc., Corning, NY, cat. 354248) for the first three passages. The 947758-054-R-J2-PDC line was cultured in 6B/Colon 1A media, which includes advanced DMEM/F-12 (Thermo Fisher Scientific, cat. 12634028), 10 mM HEPES (Thermo Fisher Scientific, cat. 15630080), 1X GlutaMAX supplement (Thermo Fisher Scientific, cat. 35050061), 0.1 mg/mL primocin (InvivoGen, cat. ant-pm-2), 10% defined fetal bovine serum, heat inactivated (HyClone Laboratories Inc., cat. SH30070.03HI), 1.25 mM N-Acetyl-L-cysteine (Sigma-Aldrich, cat. A9165), 10 mM nicotinamide (Sigma-Aldrich, cat. N0636), 1X B-27 supplement (Thermo Fisher Scientific, cat. 17504044), 1X N-2 supplement (Thermo Fisher Scientific, cat. 17502048), and 10 microM Y-27632 dihydrochloride (Tocris Bioscience, cat. 1254). The 876862-298-R-J1-PDC was cultured in 6E media, which includes all 6B/Colon 1A media components plus 50% L-WRN conditioned media (ATCC, cat. CRL-3276), 50 ng/mL recombinant human EGF recombinant protein (hEGF; Thermo Fisher Scientific, cat. PHG0311), 10 ng/mL recombinant human fibroblast growth factor 10 (hGFG-10; PeproTech, cat. 100-26), 1 ng/mL recombinant human fibroblast growth factor 2 (hFGF-2; PeproTech, cat. 100-18B), and 1 µM prostaglandin E2 (PGE2; Tocris, cat. 2296). The 227483-062-R1-J1-PDC line was cultured in Panc media, containing all 6E components except hFGF-2, with the addition of 500 nM SB-431542 (Selleckchem, cat. S1067) and 10 nM gastrin (Tocris, cat. 3006). […]
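Also: spheroids exposed to compounds for 7 days before readout.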

| SMILES | pIC50 | viability, T/C (compound 0.0316 µM) | viability, T/C (compound 0.1 µM) | viability, T/C (compound 0.316 µM) | viability, T/C (compound 1 µM) | viability, T/C (compound 3.16 µM) | viability, T/C (compound 10 µM) | viability, T/C (compound 0.000949 µM) | viability, T/C (compound 0.003 µM) | viability, T/C (compound 0.00949 µM) | viability, T/C (compound 0.03 µM) | viability, T/C (compound 0.0949 µM) | viability, T/C (compound 0.3 µM) |
| --- | --- | --- | --- | --- | --- | --- | --- | --- | --- | --- | --- | --- | --- |
| C=C(F)C(=O)N1CCN(c2nc(OCC3CCCN3C)nc3c2CCN(c2cccc4cccc(Cl)c24)C3)CC1CC#N (stereo not given) | 5.24 | 105% and 106% | 102% and 107% | 110% and 114% | 93.8% and 109% | 104% and 105% | 1.39% and 0.39% | – | – | – | – | – | – |
| CC(CO)NC(=O)c1cc(-c2ccc(Cl)cc2)nn(-c2cnn(C)c2)c1=O (stereo not given) | < 5.00 | 112% and 99.4% | 106% and 92.4% | 114% and 111% | 99.3% and 107% | 103% and 109% | 71.3% and 79% | – | – | – | – | – | – |
| CC1(C)CCC(CN2CCN(c3ccc(C(=O)NS(=O)(=O)c4ccc(NCC5CCOCC5)c([N+](=O)[O-])c4)c(Oc4cnc5[nH]ccc5c4)c3)CC2)=C(c2ccc(Cl)cc2)C1 | 5.15 and 5.18 | 101% and 99.6% | 102% and 95.9% | 113% and 106% | 106% and 102% | 119% and 111% | 25.8% and 21.3% | – | – | – | – | – | – |
| CCCS(=O)(=O)Nc1ccc(F)c(C(=O)c2c[nH]c3ncc(-c4ccc(Cl)cc4)cc23)c1F | 5.08 and 5.16 | 99.6% and 110% | 103% and 101% | 112% and 105% | 102% and 103% | 108% and 101% | 39.4% and 25.2% | – | – | – | – | – | – |

More lines, main results first:

| pIC50 | SMILES | viability, T/C (compound 0.0316 µM) | viability, T/C (compound 0.1 µM) | viability, T/C (compound 0.316 µM) | viability, T/C (compound 1 µM) | viability, T/C (compound 3.16 µM) | viability, T/C (compound 10 µM) | viability, T/C (compound 0.000949 µM) | viability, T/C (compound 0.003 µM) | viability, T/C (compound 0.00949 µM) | viability, T/C (compound 0.03 µM) | viability, T/C (compound 0.0949 µM) | viability, T/C (compound 0.3 µM) |
| --- | --- | --- | --- | --- | --- | --- | --- | --- | --- | --- | --- | --- | --- |
| 7.25 and 7.36 | C#Cc1c(F)ccc2cc(O)cc(-c3ncc4c(N5CC6CCC(C5)N6)nc(OCC56CCCN5CC(F)C6)nc4c3F)c12 (stereo not given) | 57% and 54.6% | 43.1% and 39.1% | 33.8% and 39.8% | 29.4% and 31.3% | 30.1% and 29.4% | 22.2% and 18.5% | – | – | – | – | – | – |
| < 5.00 | C=CC(=O)N1CCN(c2nc(=O)n(-c3c(C)ccnc3C(C)C)c3nc(-c4c(O)cccc4F)c(F)cc23)C(C)C1 (stereo not given) | 107% and 99.3% | 107% and 106% | 107% and 105% | 110% and 97.4% | 124% and 116% | 124% and 118% | – | – | – | – | – | – |
| < 6.52 | C=CC(=O)Nc1cc(Nc2nccc(-c3cn(C)c4ccccc34)n2)c(OC)cc1N(C)CCN(C)C | – | – | – | – | – | – | 104% and 111% | 107% and 98.9% | 97.8% and 95% | 105% and 108% | 115% and 111% | 109% and 100% |
| 8.54 and 8.64 | CC(C)CC(NC(=O)C(Cc1ccccc1)NC(=O)c1cnccn1)B(O)O (stereo not given) | – | – | – | – | – | – | 106% and 104% | 47.9% and 34.1% | 0.32% and 0.38% | 0.21% and 1.51% | 0.12% and 2.95% | 0.11% and 1.42% |
| < 5.00 and 5.08 | CC(Nc1ccc2c(c1)OCCn1cc(N3C(=O)OCC3C(F)F)nc1-2)C(N)=O (stereo not given) | 98.3% and 101% | 95.5% and 92.3% | 99.5% and 84% | 84.7% and 86.1% | 78.1% and 71% | 54.1% and 45% | – | – | – | – | – | – |
| 5.11 and 5.13 | CC1COCCN1c1cc(C2(S(C)(=N)=O)CC2)nc(-c2ccnc3[nH]ccc23)n1 (stereo not given) | 109% and 101% | 109% and 97.7% | 104% and 102% | 101% and 98% | 91.1% and 87.8% | 38.4% and 36.1% | – | – | – | – | – | – |
